Reference: PMC10683023, “Targeting Glial Cells by Organic Anion-Transporting Polypeptide 1C1 (OATP1C1)-Utilizing L-Thyroxine-Derived Prodrugs” (Journal of Medicinal Chemistry, 2023)

Test system: mouse primary astrocytes
Assay: Concentration-dependent cellular uptake into mouse primary astrocytes
Type: cell-based
Settings: 5–400 μM, 30 min, 37 °C
Procedure: The mouse primary astrocytes were isolated from neonatal pups (P0-2) of wild-type mice (C57BL/6JOlaHsd) as previously described, in compliance with the European Commission Directive 2010/63/EU and approved by the Institutional Animal Care and Use Committee of the University of Eastern Finland (Animal Usage Plan numbers: EKS-006-2019).[37] Neonatal pups were decapitated, and their brains were collected in an ice-cold HBSS buffer. After tissue dissociation and washing, cells were plated on poly-L-lysine-coated flasks and cultured in DMEM supplemented with FBS, L-glutamine, and penicillin/streptomycin (50 μg/mL) for 24 h. Debris and dead cells were removed by DPBS rinsing. After 7 days, microglial cells were removed, and the remaining astrocytic monolayer was collected by trypsinization using 0.05% trypsin-ethylenediaminetetraacetic acid (EDTA) (Gibco), pelleted, and stored at −80 °C for subsequent analysis. For the cell uptake experiments, the astrocytes were seeded on 24-well plates with a density of 10^4 cells/well 3 days before the experiments.
After removal of the culture medium, U-87MG human glioma cells and mouse primary astrocytes were carefully washed with prewarmed Hank’s balanced salt solution (HBSS) containing 125.0 mM NaCl (or choline chloride in Na^+ free conditions), 4.8 mM KCl, 1.2 mM MgSO4, 1.2 mM KH2PO4, 1.3 mM CaCl2, 5.6 mM glucose, and 25.0 mM 4-(2-hydroxyethyl)piperazine-1-ethanesulfonic acid (HEPES) with the pH adjusted to either 7.4 or pH 8.5 with 1 M NaOH (or KOH in sodium-free conditions). In the experiments at lower pH (4.5–6.5), 25.0 mM HEPES was replaced by 2-(N-morpholino) ethanesulfonic acid (MES), and the pH was adjusted to 4.5, 5.5, and 6.5 by 1.0 M NaOH. Preincubation was done with 500 μL of prewarmed HBSS at 37 °C for 10 min before adding the substrate for the uptake experiments. The functionality of OATP1C1 in human glioma U-87MG cells was studied with a known substrate (L-thyroxine, T4) and of oatp1a4, 1a5, and 1a6 in mouse primary astrocytes with [6,7-^3H(N)]-estrone-3-sulfate (ES) by incubating the uptake solution (250 μL in HBSS) consisting of 5–400 μM of the substrate at 37 °C for 30 min. After incubation, the uptake was stopped by adding 500 μL of ice-cold HBSS, and the cells were washed two times with ice-cold HBSS (2 × 500 μL). The cells were then lysed with 500 μL of 0.1 M NaOH (60 min), the lysate was neutralized, and the protein was precipitated with acidic acetonitrile (ACN with 4.8% formic acid). The supernatants were analyzed by the high-performance liquid chromatography (HPLC) methods described below (T4) or by using a liquid scintillation counter (MicroBeta2 counter, PerkinElmer, Waltham, MA) (ES). The concentrations of T4 and ES were calculated from the spiked standard curve and normalized with the protein concentrations. The protein concentrations on each plate were determined as a mean of three samples by Bio-Rad Protein Assay, based on the Bradford dye-binding method, using bovine serum albumin (BSA) as a standard protein and measuring the absorbance (595 nm) by a multiplate reader (EnVision, PerkinElmer, Inc., Waltham, MA). The OATP-mediated uptake was confirmed by changing the pH of the uptake buffer in the absence of sodium ions, and in the case of OATP1C1 in human U-87MG cells, the uptake of T4 (100 μM) was studied in the presence of competing OATP1C1-ligands, diclofenac and flufenamic acid (100 μM), and in the case of oatp1a4/1a5/1a6 in mouse primary astrocytes, the uptake of ES (100 μM) was studied in the presence of competing OATO1A2-ligand, naringin (100 μM).
Cellular uptake of prodrugs 1–8 was studied as described for L-thyroxine above by adding compounds at a concentration of 5–400 μM in prewarmed HBSS buffer (250 μL) on the cell layer and incubating at 37 °C for 30 min (uptake was linear with all compounds up to 30 min). Subsequently, the cells were washed three times with ice-cold HBSS and lysed with 500 μL of 0.1 M NaOH (60 min). […]

Compound | Km | Vmax, cellular uptake, astrocytes
CC(C(=O)Oc1c(I)cc(Oc2c(I)cc(C[C@H](N)C(=O)O)cc2I)cc1I)c1cccc(C(=O)c2ccccc2)c1 (mixture of isomers) [Prodrug 2, (2S)-2-Amino-3-(4-(4-((2-(3-benzoylphenyl)propanoyl)oxy)-3,5-diiodophenoxy)-3,5-diiodophenyl)propanoic acid] | 123 ± 21 µM | 5.5 ± 0.4 nmol/min/mg
N[C@@H](Cc1cc(I)c(Oc2cc(I)c(OC(=O)c3ccccc3O)c(I)c2)c(I)c1)C(=O)O [Prodrug 4, (S)-2-Amino-3-(4-(4-((2-hydroxybenzoyl)oxy)-3,5-diiodophenoxy)-3,5-diiodophenyl)propanoic acid] | 86 ± 32 µM | 5.5 ± 0.8 nmol/min/mg
N[C@@H](Cc1cc(I)c(OC(=O)c2ccccc2O)c(I)c1)C(=O)O [Prodrug 3, (S)-2-Amino-3-(4-((2-hydroxybenzoyl)oxy)-3,5-diiodophenyl)propanoic acid] | 685 ± 97 µM | 13.0 ± 1.3 nmol/min/mg

Now from value to compound, other results behind:

Km | Compound | Vmax, cellular uptake, astrocytes
360 ± 61 µM | CC(C(=O)Oc1c(I)cc(C[C@H](N)C(=O)O)cc1I)c1ccc(-c2ccccc2)c(F)c1 (mixture of isomers) [Prodrug 7, (2S)-2-Amino-3-(4-((2-(2-fluoro-[1,1′-biphenyl]-4-yl)propanoyl)oxy)-3,5-diiodophenyl)propanoic acid] | 10.3 ± 1.1 nmol/min/mg
58 ± 20 µM | CC(C(=O)Oc1c(I)cc(Oc2c(I)cc(C[C@H](N)C(=O)O)cc2I)cc1I)c1ccc(-c2ccccc2)c(F)c1 (mixture of isomers) [Prodrug 8, (2S)-2-Amino-3-(4-(4-((2-(2-fluoro-[1,1′-biphenyl]-4-yl)propanoyl)oxy)-3,5-diiodophenoxy)-3,5-diiodophenyl)propanoic acid] | 3.0 ± 0.4 nmol/min/mg
